One series concerns LOX-IMVI melanoma cells. Nature of the series: Cell Titer Glo viability of melanoma cell line LOX-IMVI. It counts as cell-based, human. As to conditions: six days, antibodies 20 mg/ml, DAPT 5 μM, ± Jagged-1. The method, then: (§1) Human melanoma cell lines SK23 and LOX-IMVI were plated in medium containing 2% FBS at low density (4000 cells/well for SK23, 2500 cells/well for LOX-IMVI) in 96 well plates that were coated without (−jag-1) or with Jagged-1 ligand (+jag-1) (R&D Systems, Minneapolis, Minn.). […] An equal volume of DMSO served as the vehicle control, whereas an equal concentration of anti-gD HuB6 phage antibody served as the isotype control antibody. Cell Titer Glo assays (Promega, Madison, Wis.) were performed six days after plating. […] In FIGS. 25A and 25B, cell viability (y-axis) is expressed relative to the values from the DMSO vehicle, −jag-1 control wells.
In general terms: ATP-based viability assays read luminescence as a measure of living cells.

The test system of the next series is SK23 melanoma cells. Nature of the series: Cell Titer Glo viability of melanoma cell line SK23. The series is classed as cell-based, human. As to conditions: six days, antibodies 20 mg/ml, DAPT 5 μM, ± Jagged-1. How it is done:
as §1

In a further series the test system is Notch1 signaling. As to the kind of experiment: Co-culture Notch reporter assay, Notch1 signaling (NIH-3T3 Notch1 cells + ligand cells). It counts as cell-based. As to conditions: Jag1-induced; α-gD 2000 ng/ml; DAPT 5 μM. The method, then:
(§2) NIH-3T3 cells stably transfected with Jag1 were used to induce Notch signaling in NIH-3T3 cells stably transfected with Notch1 (except for “−Jag1”, which used untransfected NIH-3T3 cells in place of the Jag1-expressing cells). […] NIH-3T3 cells stably transfected with Jag1 were used to induce Notch signaling in U87MG cells, which express high levels of Notch2. The assay was performed as described in (A). […] The assay was performed as in (A) except that the receptor-expressing cells were generated by transient transfection of plasmids expressing the indicated Notch1 receptors.
NIH-3T3 cells either stably transfected with Notch 1 or transiently transfected with plasmids containing other Notch receptors were co-transfected with a Notch-responsive TP-1 (12× CSL) Firefly luciferase reporter and a constitutively active Renilla Luciferase reporter (pRL-CMV, Promega) to control for transfection efficiency. […] After 20 hours, firefly and Renilla luciferase are measured with Dual Glo Luciferase Assay system (Promega). Eight replicates were analyzed for each condition by dividing the Firefly signal by the Renilla signal to control for transfection efficiency. The mean and standard deviation were calculated and values were normalized to calculated values for co-culture stimulated with NIH-3T3 cells without ligand transfected.
For orientation: A reporter such as luciferase makes a cellular process visible.

In a further series the test system is Notch2 signaling. As to the kind of experiment: Co-culture Notch reporter assay, Notch2 signaling (U87MG cells + Jag1 cells). It counts as cell-based. As to conditions: Jag1-induced; DAPT 5 μM. How it is done:
as §2
Co-culture assay in U87MG cells, as described in FIG. 10B.
NIH-3T3 cells either stably transfected with Notch 1 or transiently transfected with plasmids containing other Notch receptors were co-transfected with a Notch-responsive TP-1 (12× CSL) Firefly luciferase reporter and a constitutively active Renilla Luciferase reporter (pRL-CMV, Promega) to control for transfection efficiency. Cells are allowed to recover from the transfection from 6 hours to overnight. Treatments of antibodies and NIH-3T3 cells stably transfected with ligand are used to stimulate the receptor cells. After 20 hours, firefly and Renilla luciferase are measured with Dual Glo Luciferase Assay system (Promega). Eight replicates were analyzed for each condition by dividing the Firefly signal by the Renilla signal to control for transfection efficiency. The mean and standard deviation were calculated and values were normalized to calculated values for co-culture stimulated with NIH-3T3 cells without ligand transfected.

In series [1] the test system is intestinal cell differentiation. Nature of the series: Histology and immunohistochemistry of mouse intestine tissue. It counts as in vivo. From the text: (A) Total body weight change (mean+/−standard deviation) vs. time. […] Arrows mark the days of dosing. (B) Immunohistochemical analyses of small intestines. […] In each row as indicated, staining is shown for haemotoxylin and eosin (H & E), Alcian Blue for mucin and to mark secretory goblet cells, lysozyme to mark Paneth cells, Ki-67 for proliferation and Hes1 as a Notch downstream target. See FIGS. 19 and 20 for analyses of the large intestine at day 7 and of the small intestine at day 2, respectively. Bar=40 μm. (C) Comparison of Notch1- versus Notch2-specific inhibition on small intestinal cell differentiation. Small intestines from the study described in (A) were prepared for Alcian Blue and Ki-67 one day after the final dosing with α-gD, α-NRR1 or α-NRR2, as indicated. Bar=50 μm.
Formalin-fixed and paraffin-embedded mouse small intestine tissues were sectioned at 3 micron thickness. Histochemical identification of intestinal cell types was performed with Alcian blue as recommended by the manufacturer (PolyScientific). For anti-Ki67 staining, sections were pretreated with Target Retrieval Solution (S1700, DAKO), and incubated with rabbit anti-Ki67 (1:200, clone SP6, Neomarkers). Secondary goat anti-rabbit at 7.5 μg/ml (Vector labs) was detected with the Vectastain ABC Elite Kit (Vector labs). Ki67 stained sections were counterstained with Mayer's haemotoxylin. For anti-lysozyme staining, sections were processed on the Discovery XT platform (Ventana Medical Systems, Inc.) using CC1m epitope recovery conditions, OmniMap-rabbit detection and Ventana haemotoxylin II/with bluing counterstain. For HES-1 staining, anti-rat HES-1 (clone NM1, MBL, International) was followed by TSA-HRP.
The effect of inhibiting both Notch1 and Notch2 on intestinal cell fate determination was also investigated. […] The intestines were harvested and stained with H&E to reveal the crypt morphology. […] Further experimentation confirmed this observation.

Another series relates to HUVECs. Nature of the series: HUVEC fibrin gel bead endothelial cell sprouting assay. As to conditions: HUVEC co-cultured with skin fibroblasts; 1 μM DBZ, 5 μg/ml antibodies. It counts as cell-based, human. How it is done: (A) In vitro endothelial cell sprouting assay. HUVECs were coated on Cytodex beads and co-cultured with skin fibroblasts. Cultures were either mock treated (control) or treated with 1 μM of DBZ, 5 μg/ml of α-NRR1 or 5 μg/ml of α-D114. Bar=100 μm. (B) Sprout length measurements from the cultures in (A). (C) Mouse neonate retinal assay for endothelial cell sprouting and angiogenesis. Mouse neonates were injected at P1 and P3 with the indicated antibodies, and retinas were prepared at P5 to visualize perfusion of isolectin or the Ki67 marker for proliferation. Panels I and II, Bar=1 mm. Panels III-VI represent enlargements of part of panels I and II, bar=0.2 mm.
HUVEC cells were grown on fibrin gel beads as previously described (Nakatsu et al., 2003). Cytodex 3 beads (Amersham Pharmacia Biotech) were coated with 350-400 HUVECs per bead in 2 ml EGM-2 medium (Clonetics). About 200 HUVEC coated beads were imbedded in fibrin clot in one well of 12-well tissue culture plate. […] Medium was changed every two days. After seven to nine days, fibrin gels were then fixed with 4% paraformaldehyde and endothelial cells were stained with anti-CD31 (R&D Systems AF806) using a FITC-conjugated secondary antibody for detection.

The record followed here is US8404239B2, “Anti-Notch2 NRR antibodies” (Genentech, Inc., priority 2008, dated 2013).

Regarding `C[C@H](NC(=O)Cc1cc(F)cc(F)c1)C(=O)N[C@H](C(=O)OC(C)(C)C)c1ccccc1` [DAPT, reference compound], the cell viability result in the series on LOX-IMVI melanoma cells and in the series on SK23 melanoma cells was “decrease in viability” in each case. Further, the “effect on Notch1 reporter signaling” value in the series on Notch1 signaling is on record as “reduced to background”. Besides, the “effect on Notch2 reporter signaling” value with Notch2 signaling was “reduced to background”.

As for `C[C@H](NC(=O)Cc1cc(F)cc(F)c1)C(=O)N[C@@H]1C(=O)N(C)c2ccccc2-c2ccccc21` [DBZ], in series [1] (day 7), the “Notch signaling (Hes1 staining), large intestine” value was “significantly reduced Notch signaling”; the “goblet cell numbers (Alcian Blue and H&E), large intestine” value was “increased goblet cell numbers”; the “progenitor cell proliferation (Ki-67), large intestine” value was “blocked progenitor cell proliferation”. Further, in series [1] (day 7, DBZ 30 μmol/kg), the “Hes1 expression, small intestine” value is on record as “inhibition of Hes1 expression”; the “Paneth cells (lysozyme staining), small intestine” value is given as “increased the numbers and/or activity of Paneth cells”; the “goblet cell population (Alcian Blue), small intestine” value is reported as “dramatic expansion”; the “progenitor cell proliferation (Ki-67), small intestine” value is listed as “decrease in progenitor cell proliferation”. Also, in series [1] (small intestine, day 2), the “intestinal cell fate changes at early time point” value is recorded as “only weakly detectable”. In addition, the “endothelial cell sprouts (number and length)” value with HUVECs was “increased both the number and length”.
